#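 Grown in 96-well plates, cells were treated for 48 hours with each compound at five concentrations. Insufficient inhibition: endpoint recorded as highest concentration tested. GI50: concentration for 50% inhibition of growth. At the TGI there is no net growth.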
# What was measured:
# Assay in all cases: DTP human tumour cell line panel, 48 h
# CCRF-CEM leukemia = test system: CCRF-CEM leukemia
# HL-60(TB) leukemia = test system: HL-60(TB) leukemia
# HOP-62 NSCLC = test system: HOP-62 NSCLC
# HOP-92 NSCLC = test system: HOP-92 NSCLC
# IGROV1 ovarian = test system: IGROV1 ovarian
# MCF7 breast = test system: MCF7 breast
# NCI-H23 lung = test system: NCI-H23 lung
# PC-3 prostate = test system: PC-3 prostate
# RPMI-8226 leukemia = test system: RPMI-8226 leukemia
# SF-295 CNS = test system: SF-295 CNS
Structure (SMILES),TGI (CCRF-CEM leukemia),TGI (HL-60(TB) leukemia),TGI (HOP-62 NSCLC),TGI (HOP-92 NSCLC),TGI (IGROV1 ovarian),TGI (MCF7 breast),TGI (NCI-H23 lung),TGI (PC-3 prostate),TGI (RPMI-8226 leukemia),TGI (SF-295 CNS),GI50 (CCRF-CEM leukemia),GI50 (HL-60(TB) leukemia),GI50 (HOP-62 NSCLC),GI50 (HOP-92 NSCLC),GI50 (IGROV1 ovarian),GI50 (MCF7 breast),GI50 (NCI-H23 lung),GI50 (PC-3 prostate),GI50 (RPMI-8226 leukemia),GI50 (SF-295 CNS)
O=C(NCCCCCCNC(=O)n1cc(F)c(=O)[nH]c1=O)NCCCOCCOCCOCCOCCOCCOCCOCCOCCOCCOCCOCCOCCOCCOCCOCCOCCOCCOCCOCCOCCOCCCNC(=O)C(O)C(O)C(O)C(O)CO (configuration not stated),> 100 µM,> 100 µM,> 100 µM,> 100 µM,> 100 µM,> 62 µM,> 100 µM,> 100 µM,> 100 µM,> 100 µM,,,,,,,,,,
Oc1cccc2ccc(N/N=C/c3cc(CN4CCCCC4)c(O)c4ncccc34)nc12,10.8 µM,1.29 µM,8.04 µM,0.0857 µM,18.4 µM,1.28 µM,1.45 µM,1.86 µM,9.29 µM,3.07 µM,0.0558 µM,0.0345 µM,0.0456 µM,0.0165 µM,0.173 µM,0.034 µM,0.0485 µM,0.0417 µM,0.0371 µM,0.0686 µM
CCc1nccc2c1nc(-c1nonc1N)n2CC,> 25 µM,> 25 µM,> 25 µM,21.5 µM,> 25 µM,> 25 µM,> 25 µM,> 25 µM,> 25 µM,> 25 µM,> 25 µM,> 25 µM,> 25 µM,1.39 µM,16.8 µM,> 25 µM,> 25 µM,> 25 µM,> 25 µM,> 7.78 µM
O=C1CC(c2ccc(O)cc2)C2(O1)C(=O)OC(C(O)CO)C2O (configuration not stated),> 100 µM,> 100 µM,> 100 µM,,> 100 µM,> 100 µM,> 100 µM,> 100 µM,> 100 µM,> 100 µM,,,,,,,,,,
COc1ccc2sc3c(NCCCN(C)C)nc4ccccc4c3c(=O)c2c1,3.67 µM,3.91 µM,3.2 µM,2.47 µM,3.23 µM,3.4 µM,3.06 µM,3.22 µM,3.66 µM,3.27 µM,1.57 µM,1.88 µM,1.6 µM,1.03 µM,1.67 µM,1.74 µM,1.59 µM,1.62 µM,1.68 µM,1.82 µM
CC[C@@H](C(=O)O)C1CC[C@H](C)C([C@@H](C)[C@H](O)[C@H](C)C(=O)[C@H](CC)C2O[C@]3(C=C[C@@H](O)[C@]4(CC[C@@](C)(C5CC[C@](O)(CC)[C@H](C)O5)O4)O3)[C@H](C)C[C@@H]2C)O1 (some centres not stated),20.5 µM,0.347 µM,21.7 µM,4.93 µM,64.8 µM,13.9 µM,5.76 µM,45.8 µM,3.48 µM,11.1 µM,0.619 µM,0.0406 µM,1.11 µM,0.317 µM,2.28 µM,0.11 µM,0.186 µM,0.0657 µM,0.153 µM,0.261 µM
COc1ccc(/C(C#N)=C/c2ccccc2OC)cc1,30.3 µM,> 100 µM,> 100 µM,70.8 µM,> 100 µM,> 100 µM,> 100 µM,> 100 µM,46.2 µM,> 100 µM,3.34 µM,5.25 µM,19.9 µM,4.57 µM,8.82 µM,4.3 µM,18.8 µM,,9.02 µM,29.1 µM
COc1ccc2c(c1)/C(=C\c1c(C)nc3sccn13)C(=O)N2,> 100 µM,0.534 µM,> 100 µM,> 100 µM,3.69 µM,> 100 µM,> 100 µM,> 100 µM,> 26.4 µM,,0.0979 µM,0.136 µM,,0.83 µM,< 0.0252 µM,,0.382 µM,0.179 µM,,< 0.0466 µM
COc1ccc(/C=C(/C#N)C(N)=O)cc1OC,> 100 µM,> 100 µM,> 100 µM,> 100 µM,> 100 µM,> 100 µM,> 100 µM,> 100 µM,> 100 µM,> 100 µM,,,,,,,,,,
Nc1nc2c(c3ncncc13)C(c1cccc(C(F)(F)F)c1)Cc1ncncc1-2 (configuration not stated),23.3 µM,14.1 µM,47.2 µM,57.9 µM,74.9 µM,> 100 µM,> 100 µM,> 100 µM,43.8 µM,10.7 µM,4.28 µM,3.44 µM,7.41 µM,6.92 µM,8.06 µM,2.96 µM,5.17 µM,4.71 µM,5.33 µM,2.99 µM
CC1OC(O[C@@H]2OC=C(C=O)[C@@]3(O)CC[C@H](C)[C@@H]23)C(O)C(O)C1O (some centres not stated),> 100 µM,> 100 µM,> 100 µM,> 100 µM,> 100 µM,> 100 µM,> 100 µM,> 100 µM,> 100 µM,> 100 µM,,,,,,,,,,
O=C(/C=C/c1ccccc1)c1cc(Br)ccc1O,33.9 µM,25.7 µM,46.3 µM,18.3 µM,25 µM,31.5 µM,31.4 µM,33.7 µM,34 µM,31.5 µM,,,,,,,,,,
CC#C[C@]1(O)CC[C@H]2[C@@H]3CCC4=CC(=O)CCC4=C3[C@@H](c3ccc4c(c3)OCO4)C[C@@]21C,619 µM,399 µM,400 µM,131 µM,589 µM,> 1000 µM,> 1000 µM,340 µM,331 µM,329 µM,103 µM,47.5 µM,120 µM,17.7 µM,59.9 µM,77.2 µM,152 µM,39.7 µM,49.4 µM,67.8 µM
COc1ccc(-c2ccc(/C=N/n3c(COc4ccc(Cl)cc4Cl)nn(CN4CCOCC4)c3=S)o2)c([N+](=O)[O-])c1,43.8 µM,41.1 µM,> 100 µM,27.6 µM,,77.3 µM,66.7 µM,50.6 µM,40.1 µM,46.9 µM,16.2 µM,19.1 µM,35.9 µM,0.829 µM,,20.7 µM,22.5 µM,18.6 µM,12.7 µM,17.4 µM

# Reference: PubChem BioAssay (NCI)
